ChEMBL document CHEMBL1201861, “Genomics of Drug Sensitity in Cancer screening data, Wellcome Trust Sanger Institute”
pIC50: −log10 of the molar value. Counter-ions that a name gives are not always drawn.

Experiments:
NCI-H1437 = test: cells; assay type: functional, cell-based, Homo sapiens; conditions: Homo sapiens, NCI-H1437;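 also: growth inhibition of human NCI-H1437 cells, read out by a cell viability assay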
Description: SANGER: Inhibition of human NCI-H1437 cell growth in a cell viability assay.

A 172 = test: cells; assay type: functional, cell-based, Homo sapiens; conditions: Homo sapiens, A 172;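 also: growth inhibition of A172 cells, measured with a cell viability readout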
Description: SANGER: Inhibition of human A172 cell growth in a cell viability assay.

NCI-H358 = test: cells; assay type: functional, cell-based, Homo sapiens; conditions: Homo sapiens, NCI-H358;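 also: growth inhibition of NCI-H358 human cells, read out with a cell viability assay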
Description: SANGER: Inhibition of human NCI-H358 cell growth in a cell viability assay.

GI-ME-N = test: cells; assay type: functional, cell-based, Homo sapiens; conditions: Homo sapiens, GI-ME-N;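 also: growth inhibition of human GI-ME-N cells, read out with a cell viability assay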
Description: SANGER: Inhibition of human GI-ME-N cell growth in a cell viability assay.

NCI-H1304 = test: cells; assay type: functional, cell-based, Homo sapiens; conditions: Homo sapiens, NCI-H1304;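 also: growth inhibition of the cancer cell line, measured in a cell viability assay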
Description: SANGER: Inhibition of human NCI-H1304 cell growth in a cell viability assay.

NCI-H1581 = test: cells; assay type: functional, cell-based, Homo sapiens; conditions: Homo sapiens, NCI-H1581
Description: SANGER: Inhibition of human NCI-H1581 cell growth in a cell viability assay.

ST486 = test: SANGER: Inhibition of human ST486 cell growth in a cell viability assay.; assay type: functional, cell-based; conditions: Homo sapiens, ST486
8505C = test: cells; assay type: functional, cell-based, Homo sapiens; conditions: Homo sapiens, 8505C
Description: SANGER: Inhibition of human 8505C cell growth in a cell viability assay.

RPMI-2650 = test: cells; assay type: functional, cell-based, Homo sapiens; conditions: Homo sapiens, RPMI-2650
Description: SANGER: Inhibition of human RPMI-2650 cell growth in a cell viability assay.

UMUC3 = test: cells; assay type: functional, cell-based, Homo sapiens; conditions: Homo sapiens, UMUC3;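 also: growth inhibition of human UM-UC-3 cells, read out with a cell viability assay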
Description: SANGER: Inhibition of human UM-UC-3 cell growth in a cell viability assay.

MZ2-MEL = test: cells; assay type: functional, cell-based, Homo sapiens; conditions: Homo sapiens, MZ2-MEL;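 also: growth inhibition of MZ2-MEL cells read out with a cell viability assay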
Description: SANGER: Inhibition of human MZ2-MEL cell growth in a cell viability assay.

ASPC1 = test: cells; assay type: functional, cell-based, Homo sapiens; conditions: Homo sapiens, ASPC1;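 also: growth inhibition of AsPC-1 cells, read out with a cell viability assay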
Description: SANGER: Inhibition of human AsPC-1 cell growth in a cell viability assay.

NB13 = test: cells; assay type: functional, cell-based, Homo sapiens; conditions: Homo sapiens, NB13;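 also: cell viability readout measuring growth inhibition of human NB13 cells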
Description: SANGER: Inhibition of human NB13 cell growth in a cell viability assay.

KARPAS-299 = test: cells; assay type: functional, cell-based, Homo sapiens; conditions: Homo sapiens, KARPAS-299
Description: SANGER: Inhibition of human KARPAS-299 cell growth in a cell viability assay.

NCI-H716 = test: cells; assay type: functional, cell-based, Homo sapiens; conditions: Homo sapiens, NCI-H716;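 also: growth inhibition of human NCI-H716 cells, measured by a cell viability assay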
Description: SANGER: Inhibition of human NCI-H716 cell growth in a cell viability assay.

MC-CAR = test: cells; assay type: functional, cell-based, Homo sapiens; conditions: Homo sapiens, MC-CAR;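 also: growth inhibition of the human MC-CAR cell line, read out by a cell viability assay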
Description: SANGER: Inhibition of human MC-CAR cell growth in a cell viability assay.

HCC1395 = test: cells; assay type: functional, cell-based, Homo sapiens; conditions: Homo sapiens, HCC1395;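 also: growth inhibition of HCC1395 cells, read out by a cell viability assay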
Description: SANGER: Inhibition of human HCC1395 cell growth in a cell viability assay.

FTC-133 = test: cells; assay type: functional, cell-based, Homo sapiens; conditions: Homo sapiens, FTC-133
SKG-IIIa = test: cells; assay type: functional, cell-based, Homo sapiens; conditions: Homo sapiens, SKG-IIIa
Description: SANGER: Inhibition of human SKG-IIIa cell growth in a cell viability assay.

BC-3 = test: cells; assay type: functional, cell-based, Homo sapiens; conditions: Homo sapiens, BC-3;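 also: cell viability assay measuring growth inhibition of human BC-3 cells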
Description: SANGER: Inhibition of human BC-3 cell growth in a cell viability assay.

LN-405 = test: cells; assay type: functional, cell-based, Homo sapiens; conditions: Homo sapiens, LN-405
Description: SANGER: Inhibition of human LN-405 cell growth in a cell viability assay.

Lu-65 = test: cells; assay type: functional, cell-based, Homo sapiens; conditions: Homo sapiens, Lu-65;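 also: growth inhibition of Lu-65 cancer cells, read out by a cell viability assay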
Description: SANGER: Inhibition of human LU-65 cell growth in a cell viability assay.

NCI-H2087 = test: cells; assay type: functional, cell-based, Homo sapiens; conditions: Homo sapiens, NCI-H2087;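 also: growth inhibition determined with a cell viability readout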
Description: SANGER: Inhibition of human NCI-H2087 cell growth in a cell viability assay.

U-698-M = test: cells; assay type: functional, cell-based, Homo sapiens; conditions: Homo sapiens, U-698-M
Description: SANGER: Inhibition of human U-698-M cell growth in a cell viability assay.

T98G = test: cells; assay type: functional, cell-based, Homo sapiens; conditions: Homo sapiens, T98G;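 also: growth inhibition of T98G cells, read out by a cell viability assay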
Description: SANGER: Inhibition of human T98G cell growth in a cell viability assay.

PC-14 = test: cells; assay type: functional, cell-based, Homo sapiens; conditions: Homo sapiens, PC-14;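 also: cell viability assay measuring inhibition of PC-14 cell growth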
Description: SANGER: Inhibition of human PC-14 cell growth in a cell viability assay.

SBC-1 = test: cells; assay type: functional, cell-based, Homo sapiens; conditions: Homo sapiens, SBC-1;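 also: cell viability assay measuring growth inhibition of the SBC-1 cell line, IC50 being the concentration that halves growth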
Description: SANGER: Inhibition of human SBC-1 cell growth in a cell viability assay.

BXPC-3 = test: cells; assay type: functional, cell-based, Homo sapiens; conditions: Homo sapiens, BXPC-3;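 also: growth inhibition of human BxPC-3 cells, read out by a cell viability assay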
Description: SANGER: Inhibition of human BxPC-3 cell growth in a cell viability assay.

TE-1 = test: cells; assay type: functional, cell-based, Homo sapiens; conditions: Homo sapiens, TE-1;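 also: growth inhibition of the human TE-1 cell line, read out with a cell viability assay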
Description: SANGER: Inhibition of human TE-1 cell growth in a cell viability assay.

MKN-45 = test: cells; assay type: functional, cell-based, Homo sapiens; conditions: Homo sapiens, MKN-45;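 also: growth inhibition of human MKN-45 cells, measured with a cell viability assay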
Description: SANGER: Inhibition of human MKN45 cell growth in a cell viability assay.

Huh-7 = test: cells; assay type: functional, cell-based, Homo sapiens; conditions: Homo sapiens, Huh-7;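 also: HuH-7 cell growth inhibition, read out with a cell viability assay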
Description: SANGER: Inhibition of human HuH-7 cell growth in a cell viability assay.

OCI-AML2 = test: cells; assay type: functional, cell-based, Homo sapiens; conditions: Homo sapiens, OCI-AML2;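 also: growth inhibition of OCI-AML2 cells, read out with a cell viability assay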
Description: SANGER: Inhibition of human OCI-AML2 cell growth in a cell viability assay.

CAPAN-1 = test: cells; assay type: functional, cell-based, Homo sapiens; conditions: Homo sapiens, CAPAN-1;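 also: growth suppression of CAPAN-1 cells, read out by a cell viability assay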
Description: SANGER: Inhibition of human CAPAN-1 cell growth in a cell viability assay.

HO-1-N-1 = test: cells; assay type: functional, cell-based, Homo sapiens; conditions: Homo sapiens, HO-1-N-1;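 also: growth inhibition of human HO-1-N-1 cells, read out with a cell viability assay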
Description: SANGER: Inhibition of human HO-1-N-1 cell growth in a cell viability assay.

CAL-33 = test: cells; assay type: functional, cell-based, Homo sapiens; conditions: Homo sapiens, CAL-33;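 also: growth inhibition of CAL-33 cells, read out with a cell viability assay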
Description: SANGER: Inhibition of human CAL-33 cell growth in a cell viability assay.

CTB-1 = test: cells; assay type: functional, cell-based, Homo sapiens; conditions: Homo sapiens, CTB-1
Description: SANGER: Inhibition of human CTB-1 cell growth in a cell viability assay.

NCI-H2347 = test: cells; assay type: functional, cell-based, Homo sapiens; conditions: Homo sapiens, NCI-H2347
Description: SANGER: Inhibition of human NCI-H2347 cell growth in a cell viability assay.

LOX IMVI = test: cells; assay type: functional, cell-based, Homo sapiens; conditions: Homo sapiens, LOX IMVI
Description: SANGER: Inhibition of human LOXIMVI cell growth in a cell viability assay.

KU812 cell line = test: cells; assay type: functional, cell-based, Homo sapiens; conditions: Homo sapiens, KU812;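 also: growth inhibition of KU812 cells, read out with a cell viability assay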
Description: SANGER: Inhibition of human KU812 cell growth in a cell viability assay.

GAK = test: cells; assay type: functional, cell-based, Homo sapiens; conditions: Homo sapiens, GAK
Description: SANGER: Inhibition of human GAK cell growth in a cell viability assay.

G-401 = test: cells; assay type: functional, cell-based, Homo sapiens; conditions: Homo sapiens, G-401
Description: SANGER: Inhibition of human G-401 cell growth in a cell viability assay.

RPMI 8402 = test: SANGER: Inhibition of human RPMI-8402 cell growth in a cell viability assay.; assay type: functional, cell-based; conditions: Homo sapiens, RPMI 8402; read-out: IC50
MDA-MB-453 = test: cells; assay type: functional, cell-based, Homo sapiens; conditions: Homo sapiens, MDA-MB-453
Description: SANGER: Inhibition of human MDA-MB-453 cell growth in a cell viability assay.

KY821 = test: cells; assay type: functional, cell-based, Homo sapiens; conditions: Homo sapiens, KY821;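 also: growth inhibition of human KY821 cells, read out by a cell viability assay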
Description: SANGER: Inhibition of human KY821 cell growth in a cell viability assay.

D-392MG = test: cells; assay type: functional, cell-based, Homo sapiens; conditions: Homo sapiens, D-392MG
HOP-62 = test: cells; assay type: functional, cell-based, Homo sapiens; conditions: Homo sapiens, HOP-62
Description: SANGER: Inhibition of human HOP-62 cell growth in a cell viability assay.

TE-441-T = test: cells; assay type: functional, cell-based, Homo sapiens; conditions: Homo sapiens, TE-441-T
Description: SANGER: Inhibition of human TE-441-T cell growth in a cell viability assay.

COC1=CC(c2cc3ccccc3[nH]2)=N/C1=C\c1[nH]c(C)cc1C [OBATOCLAX MESYLATE]
pIC50 (NCI-H1437): 6.39 | pIC50 (A 172): 6.05 | pIC50 (NCI-H358): 7.10 | pIC50 (GI-ME-N): 5.30 | pIC50 (NCI-H1304): 5.79 | pIC50 (NCI-H1581): 5.63 | pIC50 (ST486): > 7.20 | pIC50 (8505C): 7.52 | pIC50 (RPMI-2650): 7.64 | pIC50 (UMUC3): 6.54 | pIC50 (MZ2-MEL): 7.53 | pIC50 (ASPC1): 5.13 | pIC50 (NB13): 7.19 | pIC50 (KARPAS-299): < 4.80 | pIC50 (NCI-H716): 5.77 | pIC50 (MC-CAR): 7.63 | pIC50 (HCC1395): 5.71 | pIC50 (FTC-133): 5.44 | pIC50 (SKG-IIIa): 5.33 | pIC50 (BC-3): 5.63 | pIC50 (LN-405): 5.86 | pIC50 (Lu-65): 5.96 | pIC50 (NCI-H2087): 6.89 | pIC50 (U-698-M): 7.03 | pIC50 (T98G): 5.30 | pIC50 (PC-14): 7.28 | pIC50 (SBC-1): 5.51 | pIC50 (BXPC-3): 7.13 | pIC50 (TE-1): 6.84 | pIC50 (MKN-45): 5.70 | pIC50 (Huh-7): 6.42 | pIC50 (OCI-AML2): 7.24 | pIC50 (CAPAN-1): 6.28 | pIC50 (HO-1-N-1): 7.03 | pIC50 (CAL-33): 6.29 | pIC50 (CTB-1): 7.12 | pIC50 (NCI-H2347): 6.05 | pIC50 (LOX IMVI): 7.21 | pIC50 (KU812 cell line): 6.00 | pIC50 (GAK): > 7.20 | pIC50 (G-401): 7.51 | pIC50 (RPMI 8402): 7.73 | pIC50 (MDA-MB-453): 5.65 | pIC50 (KY821): < 4.80 | pIC50 (D-392MG): 5.80 | pIC50 (HOP-62): 7.08 | pIC50 (TE-441-T): 5.85

Nc1ccn([C@@H]2O[C@H](CO)[C@@H](O)C2(F)F)c(=O)n1 [GEMCITABINE]
pIC50 (NCI-H1437): 8.03 | pIC50 (A 172): 7.61 | pIC50 (NCI-H358): 8.15 | pIC50 (GI-ME-N): < 5.99 | pIC50 (NCI-H1304): 6.42 | pIC50 (NCI-H1581): < 5.99 | pIC50 (ST486): 8.03 | pIC50 (8505C): 8.97 | pIC50 (RPMI-2650): 7.75 | pIC50 (UMUC3): 7.79 | pIC50 (MZ2-MEL): 7.58 | pIC50 (ASPC1): < 5.99 | pIC50 (NB13): 7.42 | pIC50 (KARPAS-299): 6.60 | pIC50 (NCI-H716): < 5.99 | pIC50 (MC-CAR): 7.94 | pIC50 (HCC1395): < 5.99 | pIC50 (FTC-133): 7.06 | pIC50 (SKG-IIIa): 6.09 | pIC50 (BC-3): 6.66 | pIC50 (LN-405): < 5.99 | pIC50 (Lu-65): 6.52 | pIC50 (NCI-H2087): 8.67 | pIC50 (U-698-M): 6.46 | pIC50 (T98G): 6.27 | pIC50 (PC-14): 6.69 | pIC50 (SBC-1): 6.78 | pIC50 (BXPC-3): 7.43 | pIC50 (TE-1): < 5.99 | pIC50 (MKN-45): 7.75 | pIC50 (Huh-7): 6.25 | pIC50 (OCI-AML2): > 8.40 | pIC50 (CAPAN-1): 8.03 | pIC50 (HO-1-N-1): 7.62 | pIC50 (CAL-33): 8.72 | pIC50 (CTB-1): 7.27 | pIC50 (NCI-H2347): 6.10 | pIC50 (LOX IMVI): 8.80 | pIC50 (KU812 cell line): 8.72 | pIC50 (GAK): 6.43 | pIC50 (G-401): 7.26 | pIC50 (RPMI 8402): 7.34 | pIC50 (MDA-MB-453): < 5.99 | pIC50 (KY821): < 5.99 | pIC50 (D-392MG): 5.99 | pIC50 (HOP-62): 6.65 | pIC50 (TE-441-T): < 5.99
